The values that follow come from patent publication US20150175556A1, “DIHYDROPYRIMIDIN-2(1H)-ONES AND DIHYDROPYRIMIDIN-2(1H)-THIONES AS INHIBITORS OF SODIUM IODIDE SYMPORTER” (COMMISSARIAT A L'ENERGIE ATOMIQUE ET AUX ENERGIES …, priority 2012, published 2015).

By IC50 is commonly meant the midpoint of a concentration-inhibition curve. The melting point is the temperature of the solid-liquid transition.

Series [1] concerns the target T1, sodium iodide symporter (NIS), iodide transport in FRTL5 cells (Rattus norvegicus, UniProt Q63008).
T1 construct: host or cells: FRTL5 (rat thyroid-derived cells), endogenous NIS
T1 sequence (Q63008 1-618): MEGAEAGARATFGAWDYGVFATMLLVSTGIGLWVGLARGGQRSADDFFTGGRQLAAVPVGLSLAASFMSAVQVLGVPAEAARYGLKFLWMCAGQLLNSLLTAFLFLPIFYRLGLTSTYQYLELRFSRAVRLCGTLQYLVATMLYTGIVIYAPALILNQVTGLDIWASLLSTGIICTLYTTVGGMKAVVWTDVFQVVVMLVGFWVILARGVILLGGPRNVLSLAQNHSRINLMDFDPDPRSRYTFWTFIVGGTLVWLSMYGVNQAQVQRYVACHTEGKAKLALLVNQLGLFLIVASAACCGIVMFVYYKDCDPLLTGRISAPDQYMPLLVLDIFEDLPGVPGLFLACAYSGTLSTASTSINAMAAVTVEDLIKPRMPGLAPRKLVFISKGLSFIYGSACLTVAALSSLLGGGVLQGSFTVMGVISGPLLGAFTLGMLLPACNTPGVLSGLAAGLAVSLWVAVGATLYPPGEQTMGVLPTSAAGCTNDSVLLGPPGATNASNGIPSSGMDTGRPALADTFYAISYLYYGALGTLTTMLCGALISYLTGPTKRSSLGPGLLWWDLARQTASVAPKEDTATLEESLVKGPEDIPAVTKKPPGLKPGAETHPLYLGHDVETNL
To be noted: F. Waltz et al., Anal. Biochem., 2010; read-out: IC50, competitive inhibition of iodide transport in FRTL5 cells; cited from earlier work.

Series [2] addresses T2, hNIS-HEK293 cells (Homo sapiens, UniProt Q92911).
T2 construct: host or cells: HEK293 stably expressing human NIS
T2 sequence (Q92911 1-643): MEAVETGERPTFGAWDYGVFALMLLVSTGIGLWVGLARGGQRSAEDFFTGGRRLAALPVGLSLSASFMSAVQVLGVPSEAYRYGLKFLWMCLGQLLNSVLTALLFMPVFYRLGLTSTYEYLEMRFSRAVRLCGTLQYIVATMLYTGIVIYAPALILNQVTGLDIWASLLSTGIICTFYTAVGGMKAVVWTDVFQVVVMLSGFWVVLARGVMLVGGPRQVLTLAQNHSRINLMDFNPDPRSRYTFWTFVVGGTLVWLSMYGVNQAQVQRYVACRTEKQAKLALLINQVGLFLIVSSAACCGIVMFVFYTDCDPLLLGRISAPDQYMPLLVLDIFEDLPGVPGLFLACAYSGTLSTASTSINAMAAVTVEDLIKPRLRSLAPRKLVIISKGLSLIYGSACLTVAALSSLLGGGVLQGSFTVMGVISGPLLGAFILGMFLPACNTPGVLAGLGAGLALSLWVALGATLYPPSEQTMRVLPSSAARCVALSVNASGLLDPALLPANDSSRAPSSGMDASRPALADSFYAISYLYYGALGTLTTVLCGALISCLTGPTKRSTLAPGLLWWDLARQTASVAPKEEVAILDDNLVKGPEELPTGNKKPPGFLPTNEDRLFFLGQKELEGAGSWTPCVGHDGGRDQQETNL
To be noted: cited from earlier work.

For series [3] the following is noted: concentration up to 200 μM; cited from earlier work.
In series [4] the target is T3, sodium iodide symporter (NIS), iodide uptake in FRTL5 cells (Rattus norvegicus, UniProt Q63008).
T3 construct: endogenous in cells; host or cells: FRTL5 (rat thyroid-derived cells)
T3 sequence (Q63008 1-618): T1 sequence (Q63008 1-618)
Description: Inhibition of iodide uptake in FRTL5 cells, non radioactive arsenic/cerium assay. The conditions noted are these: Table 5, variations at Y, R1, R3, R4, R5; averaged from two to four independent experiments; NaI 10 μM, 1 hour, 20°C; read-out: IC50 (μM), inhibitory activity against iodide uptake in FRTL5 cells. In kind it is cell-based. How it is done:
Some of the synthesized compounds were evaluated for their ability to inhibit iodide entrapment in FRTL5 cells. The IC50 values were measured in at least […] independent experiments.
The biological activity of each compound was determined in FRTL5 cells, using a non radioactive arsenic/cerium assay as described in F. Waltz et al., Anal. Biochem., 2012, 396, 91-95. Compound potency was expressed as IC50, the concentration of compound necessary to achieve 50% inhibition of iodide uptake. Briefly, to FRTL5 cells at 70-90% confluence was added compound (200 μM, 10 μM, 0.5 μM, 25 nM, 1.2 nM, 60 pM, […], and 0.15 pM final), followed by NaI (10 μM final). After 1 hour incubation at 20±1° C., supernatant was removed and the cells were immediately assayed for iodide content using the modified As/Ce Sandell-Kolthoff reaction. NaClO4 was tested in each microplate as assay controls. The IC50 values of all compounds were measured least thrice independently.
Stock solutions of tested compounds were prepared in DMSO (20 mM) and that of NaClO4 in water (20 mM). These stock solutions were stored at 4° C. for up to 2 months. Sample dilutions: the day of the assay, a daughter plate (clear flat-bottomed 96-well polystyrene microplates, Costar 9017) was prepared from 20 mM stock solutions. NaClO4 (column 2) and DHPM samples (columns 4 to 11) were diluted at 10× the final concentration in uptake buffer.
FRTL5 cells were cultured as described in F. S. Ambesi-Impiombato et al., Proc. Natl. Acad. Sci. USA, 1980, 77, 3455-3459. Briefly, FRTL5 cells were cultured in Coon's modified F12 medium supplemented with 5% heat-inactivated fetal bovine serum (Invitrogen), 2 mM L-glutamine, 100 U/mL penicillin, 0.1 mg/mL streptomycin, 10 μg/mL insulin, 10 nM hydrocortisone, 10 ng/mL Gly-His-Lys acetate, 1 mU/mL TSH, 5 μg/mL transferrin at 37° C. and 5% CO2. For iodide uptake assays, 200 μL of FRTL5 cells with density of 250,000 cells/mL were dispensed in each well of clear flat-bottomed 96-well polystyrene microplates (Costar 3628) using the Multidrop 384 (ThermoFisher Scientific), and further cultured until confluence reached 80-90% (3-4 days).
The culture medium of FRTL5 monolayer cells at 80-90% confluence was replaced by uptake buffer (20° C.) via continuous aspiration/dispense cycle (600 μL) using a 96-needle head plate washer PW 384 (Tecan). The 96-needle head was set to a vertical position such that 80 μL of fresh uptake buffer remained in each well at the end of the cycle. The samples (10 μL each) from the daughter plate were transferred all at once to the assay plate using the 96-tip head pipettor Liquidator 96 (Mettler Toledo). Immediately after, 10 μL of a NaI solution at 100 μM was added to each well of the assay plate using the Liquidator 96. The assay plate was left to stand in the dark at 20±1° C. for 60 min. The assay plate was then washed with cold (4° C.) uptake buffer using the PW 384 plate washer and residual supernatant was immediately discarded by inverting the assay plate on absorbent paper.
Sodium iodide standards (S1 to S7) and water (S0) were distributed in duplicate (100 μL each) in the first and last column of the assay plate. Water (100 μL) was added to the columns with the Multidrop 384. 100 μL of the ammonium cerium (IV) sulfate solution (10.5 mM) was distributed into the columns, followed by 100 μL of the sodium arsenite (III) solution (24 mM) using the Multidrop 384. The assay plate was left to stand at 20±1° C. for 30 min. The absorbance at 420 nm (Abs420) was immediately recorded on a SpectraMax Plus 384 (Molecular Devices). A calibration curve was prepared for each plate by plotting the logarithmic conversion of the means of Abs420 (n=2) vs iodide standard concentrations (S0 to S7). The iodide concentrations in the samples were determined after linear regression of the calibration curve.

The target of series [5] is T4, iodide transport in rat thyroid-derived cell lines (FRTL5) (Rattus norvegicus, UniProt Q63008).
T4 construct: host or cells: FRTL5 (rat thyroid-derived cells), endogenous NIS
T4 sequence (Q63008 1-618): T1 sequence (Q63008 1-618)
To be noted: reported in literature (N. Lecat-Guillet et al., 2008); read-out: IC50, iodide uptake in FRTL5 cells; cited from earlier work.

On to `F[B-](F)(F)F` [BE4^−], for which the IC50 in series [1] is 750 nM.
On to `[O-][Cl+3]([O-])([O-])O` [ClO4^−], for which the IC50 in series [1] was 140 nM.
`COc1ccc(COC(=O)C2=C(C)NC(=O)NC2c2ccccc2)cc1` (stereo not drawn) [Compound 1, 4-methoxybenzyl 6-methyl-2-oxo-4-phenyl-1,2,3,4-tetrahydropyrimidine-5-carboxylate] came in with a melting point of 162 to 164 °C. Also, the “Efflux of iodide from preloaded hNIS-HEK293 cells” value in series [2] is “can trigger a rapid efflux of iodide”. In addition, the Cytotoxicity entry in series [3] is reported as “not found cytotoxic”.
Consider `COc1ccc(COC(=O)C2=C(C)N(C)C(=O)N(C)C2c2ccco2)cc1OC` (stereo not drawn) [Compound 58, 3,4-Dimethoxybenzyl 4-(furan-2-yl)-1,3,6-trimethyl-2-oxo-1,2,3,4-tetrahydropyrimidine-5-carboxylate], for which the melting point lay in the range of 122 to 124 °C. Besides, the concentration for half-maximal inhibition (IC50) in series [4] amounted to 0.065 µM.
The like results for `CC1=C(C(=O)OCc2ccc3c(c2)OCO3)C(c2ccco2)NC(=O)N1` (stereo not drawn) [Compound 59, benzo[d][1,3]dioxol-5-ylmethyl 4-(furan-2-yl)-6-methyl-2-oxo-1,2,3,4-tetrahydropyrimidine-5-carboxylate] were, in that order, 169 to 171 °C and 0.004 µM.
Taken in the same sequence, the figures for `CC1=C(C(=O)OCc2ccc3c(c2)OCO3)C(c2ccco2)NC(=O)N1C` (stereo not drawn) [Compound 60, Benzo[d][1,3]dioxol-5-ylmethyl 4-(furan-2-yl)-1,6-dimethyl-2-oxo-1,2,3,4-tetrahydropyrimidine-5-carboxylate] were 141 to 143 °C and 0.073 µM.
In the case of `CC1=C(C(=O)OCc2ccc3c(c2)OCO3)C(c2ccoc2)NC(=O)N1` (stereo not drawn) [Compound 62, Benzo[d][1,3]dioxol-5-ylmethyl 4-(furan-3-yl)-6-methyl-2-oxo-1,2,3,4-tetrahydropyrimidine-5-carboxylate], the melting point lay within 172 to 173 °C. Besides, the IC50 in series [4] was found to be 0.037 µM.
Turning to `CC1=C(C(=O)NCc2ccc3c(c2)OCO3)C(c2ccccc2)NC(=O)N1` (stereo not drawn) [Compound 63, N-(benzo[d][1,3]dioxol-5-ylmethyl) 6-methyl-2-oxo-4-phenyl-1,2,3,4-tetrahydropyrimidine-5-carboxamide], the melting point is 235 to 237 °C. In addition, the IC50 in series [4] was 0.078 µM.
`F[B-](F)(F)c1ccc(OCc2ccccc2)cc1` [ITB11]: in series [5], the IC50 was 400 nM.
Turning to `O=[N+]([O-])O` [NO3^−], the 50% inhibitory concentration (IC50) in series [1] is 250000 nM.
Regarding `F[P-](F)(F)(F)(F)F` [PF6^−], in series [1], the IC50 is 9 nM.
